Measured values published in publication PMC9505973, “Sustainable Production of Biosurfactant from Agro-Industrial Oil Wastes by Bacillus subtilis and Its Potential Application as Antioxidant and ACE Inhibitor” (International Journal of Molecular Sciences, 2022).

Tests used:
ACE in serum = conditions: HFFD rats; cited from earlier work
Procedure: Biosurfactants’ inhibitory activity was analyzed in vitro as well as in vivo, using an animal model, in the work of Zouari et al.. […] Moreover, the administration of B. subtilis SPB1 lipopeptides or atorvastatin in vivo, to hypercaloric high-fat–high-fructose diet (HFFD) rats, decr ...

[1] = Ferric reducing antioxidant power (FRAP, TEAC)
Procedure: (§1) The surfactin antioxidant activity was measured using ABTS, DPPH and FRAP assays. Each measurement was performed in triplicate. The ABTS assay was conducted according to Re et al.. In the first instance, radical cation (ABTS^•+) solution was prepared by mixing 7 mM ABTS stock solution (Sigma-Aldrich) with 2.45 mM potassium persulfate solution (Sigma-Aldrich). The mixture was incubated in the dark at room temperature for 12–16 h. Then, the reagent absorbance was adjusted to 0.7 (±0.02) at 734 nm, using distilled water as a blank. The antioxidant activity of the biosurfactant was determined by mixing 10 μL of surfactin (1 mg/mL) with 990 μL of ABTS^•+ solution. The absorbance was measured after 5 min incubation in the dark, using the Spark multimode microplate leader (Tecan Group Ltd., Männedorf, Switzerland), at 734 nm. The standard curve was prepared for Trolox ethanol solution (Sigma-Aldrich, St. Louis, MO, USA) in the range of 0–2000 μM. The activity of surfactin was expressed as the Trolox equivalent antioxidant capacity (TEAC [µM/g]).
Finally, the FRAP assay was conducted according to Benzie et al.. The reaction, performed at pH = 3.6, involved the reduction of Fe^3+ to Fe^2+ in the presence of 2,4,6-trypyridyl-s-triazine, followed by the formation of a colored complex. […]

[2] = ABTS radical cation assay (TEAC)
Procedure: as §1

[3] = DPPH free radical scavenging (TEAC)
Procedure: as §1, with “The standard curve was prepared for Trolox ethanol solution (Sigma-Aldrich, St. Louis, MO, USA) in the range of 0–2000 μM.” left out
In addition, the antioxidant activity of surfactin, expressed as the ability to scavenge DPPH free radicals, was investigated according to Xu et al.. […] The sample was centrifuged (12000 rpm) and the absorbance was measured using the Spark multimode microplate leader (Tecan Group Ltd., Männedorf, Switzerland) at 517 nm. The antioxidant activity of surfactin was expressed as Trolox equivalent (TEAC [µM/g]). […]

[4] = system: angiotensin-converting enzyme (ACE); assay: ACE-inhibitory activity assay; type: biochemical
Procedure: The ACE-inhibitory activity assay was performed according to Udenigwe and Aluko [56] and quantified by a regression analysis of ACE-inhibitory activity (%) versus surfactin concentration. The IC50 value, i.e., the surfactin concentration (µg/mL) that causes 50% inhibition of ACE activity, was determined. The assay was carried out in triplicate.

Molecule | reduction in ACE activity (ACE in serum) | TEAC, FRAP ([1]; 50 μL surfactin (1 mg/mL) + 150 μL working solution, pH 3.6, 10 min, room temperature, 593 nm, Trolox standard, triplicate) | antioxidant activity (FRAP), in words ([1]; surfactin 1 mg/mL) | TEAC, ABTS ([2]; 10 μL surfactin (1 mg/mL) + 990 μL ABTS•+, 5 min in the dark, 734 nm, Trolox standard 0–2000 μM, triplicate) | antioxidant activity (ABTS), in words ([2]; surfactin 1 mg/mL) | TEAC, DPPH ([3]; 10 μL surfactin (1 mg/mL) + 190 μL 0.1 mM DPPH in ethanol, 30 min in the dark, 517 nm, Trolox standard 0–1000 μM, triplicate) | antioxidant activity (DPPH), in words ([3]; surfactin 1 mg/mL) | ACE inhibition, in words [4] | IC50, ACE-inhibitory activity ([4]; regression of ACE-inhibitory activity (%) versus surfactin concentration, triplicate)
CC(C)c1c(C(=O)Nc2ccccc2)c(-c2ccccc2)c(-c2ccc(F)cc2)n1CC[C@@H](O)C[C@@H](O)CC(=O)O [atorvastatin] | 24% | – | – | – | – | – | – | – | –
surfactin | – | 0.76 ± 0.096 µM/g | trace antioxidant activity | 3.77 ± 0.22 µM/g | trace antioxidant activity | 11.67 ± 0.8 µM/g | trace antioxidant activity | strong inhibitory effect against ACE activity | 0.62 ± 0.04 mg/mL
